From publication PMC4727946 (The Journal of General Physiology, 2016)

Legend:
Assay type in all cases: cell-based
Pannexin1 (Panx1) [1] = target: T1, Pannexin1 (Panx1) (Homo sapiens, UniProt Q96RD7); assay: whole-cell patch clamp of Panx1-transfected HEK293 cells, dose response
Pannexin1 (Panx1) [2] = target: T1, Pannexin1 (Panx1); assay: whole-cell patch clamp in transfected HEK293 cells
Pannexin1 (Panx1) [3] = target: T1, Pannexin1 (Panx1); assay: whole-cell patch clamp in transfected HEK293 cells; remark: listed apart in the source

T1 sequence (Q96RD7 whole entry): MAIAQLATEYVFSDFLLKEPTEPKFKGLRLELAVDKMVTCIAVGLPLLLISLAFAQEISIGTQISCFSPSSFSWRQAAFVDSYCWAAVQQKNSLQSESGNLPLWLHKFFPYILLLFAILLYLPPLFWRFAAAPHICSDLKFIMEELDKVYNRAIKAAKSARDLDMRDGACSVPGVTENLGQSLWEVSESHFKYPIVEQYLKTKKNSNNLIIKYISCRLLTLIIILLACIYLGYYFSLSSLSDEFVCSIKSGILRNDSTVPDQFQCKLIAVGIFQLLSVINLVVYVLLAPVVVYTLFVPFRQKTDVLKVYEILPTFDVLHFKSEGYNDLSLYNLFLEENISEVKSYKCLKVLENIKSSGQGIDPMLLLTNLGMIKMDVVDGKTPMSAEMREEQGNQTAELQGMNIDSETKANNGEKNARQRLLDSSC

CC1(C)[C@@H](OC(=O)CCC(=O)O)CC[C@]2(C)[C@H]3C(=O)C=C4[C@@H]5C[C@@](C)(C(=O)O)CC[C@]5(C)CC[C@@]4(C)[C@]3(C)CC[C@@H]12 [carbenoxolone]
IC50 (Pannexin1 (Panx1) [1]): ~2000 nM

COc1ccc(Cl)cc1C(=O)NCCc1ccc(S(=O)(=O)NC(=O)NC2CCCCC2)cc1 [glybenclamide]
whole-cell patch clamp in transfected HEK293 cells (150 μM) (Pannexin1 (Panx1) [2]): W74 is essential not only for CBX, but also for the other four Panx1 inhibitors to function

CCCN(CCC)S(=O)(=O)c1ccc(C(=O)O)cc1 [probenecid]
whole-cell patch clamp in transfected HEK293 cells (3 mM and 10 mM) (Pannexin1 (Panx1) [3]): suggesting that binding of probenecid trapped Panx1 in a nonresting closed conformation
